Values quoted from earlier work as cited in patent US20210022978A1, “BUMETANIDE DERIVATIVES FOR THE THERAPY OF HYPERHIDROSIS” (ZILENTIN AG, priority 2018, published 2021).

Assays:
[1] = molecular target: T1, NKCC in sweat glands (Homo sapiens, UniProt P55011)
T1 construct: host or cells: sweat glands (in vivo)
T1 sequence (P55011 1-1212): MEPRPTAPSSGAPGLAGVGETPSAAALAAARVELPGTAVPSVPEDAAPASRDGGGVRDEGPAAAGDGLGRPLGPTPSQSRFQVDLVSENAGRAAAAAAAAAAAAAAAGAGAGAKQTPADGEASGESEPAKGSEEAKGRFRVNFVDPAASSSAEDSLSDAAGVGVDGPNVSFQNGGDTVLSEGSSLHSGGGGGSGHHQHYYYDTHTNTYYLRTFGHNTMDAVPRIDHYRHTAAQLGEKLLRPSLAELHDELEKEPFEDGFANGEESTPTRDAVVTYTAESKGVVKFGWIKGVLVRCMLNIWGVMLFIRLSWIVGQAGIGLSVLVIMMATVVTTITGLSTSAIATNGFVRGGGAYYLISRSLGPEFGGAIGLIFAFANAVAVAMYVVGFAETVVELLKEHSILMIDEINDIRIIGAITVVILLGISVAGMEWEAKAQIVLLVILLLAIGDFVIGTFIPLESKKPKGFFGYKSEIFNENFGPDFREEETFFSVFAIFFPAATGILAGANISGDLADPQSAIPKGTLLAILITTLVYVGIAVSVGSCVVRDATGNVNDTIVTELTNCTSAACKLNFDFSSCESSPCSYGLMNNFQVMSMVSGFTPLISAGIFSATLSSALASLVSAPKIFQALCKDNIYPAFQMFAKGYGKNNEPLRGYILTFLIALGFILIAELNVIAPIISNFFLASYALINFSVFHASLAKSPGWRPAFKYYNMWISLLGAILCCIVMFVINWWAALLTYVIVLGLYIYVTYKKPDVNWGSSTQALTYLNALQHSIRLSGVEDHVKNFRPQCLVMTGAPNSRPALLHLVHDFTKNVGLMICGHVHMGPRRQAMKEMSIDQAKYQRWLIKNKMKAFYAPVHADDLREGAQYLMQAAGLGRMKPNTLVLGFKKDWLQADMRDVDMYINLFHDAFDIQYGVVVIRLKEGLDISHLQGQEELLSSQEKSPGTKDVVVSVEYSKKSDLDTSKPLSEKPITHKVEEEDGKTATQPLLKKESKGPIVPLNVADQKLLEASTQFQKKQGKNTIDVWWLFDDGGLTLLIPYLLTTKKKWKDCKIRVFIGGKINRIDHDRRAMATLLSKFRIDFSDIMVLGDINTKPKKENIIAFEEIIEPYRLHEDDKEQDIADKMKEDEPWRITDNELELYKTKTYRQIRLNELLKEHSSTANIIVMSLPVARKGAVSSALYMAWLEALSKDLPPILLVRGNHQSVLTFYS

[2] = test system: conditioned anxiety; settings: rats, compared with the vehicle alone
[3] = test system: rAceMIF

| SMILES | effectiveness in treating hyperhidrosis [1] | percentage of test period freezing [2] | inhibition of rAceMIF tautomerase activity [3] |
| --- | --- | --- | --- |
| CCCCNc1cc(C(=O)O)cc(S(N)(=O)=O)c1Oc1ccccc1 [bumetanide, 3-(butylamino)-4-phenoxy-5-sulfamoylbenzoic acid] | partly effective | significantly smaller percentage of test period freezing |  |
| NS(=O)(=O)c1cc(C(=O)O)c(NCc2ccco2)cc1Cl [furosemide] |  |  | submicromolar |
